How the values were obtained:
Akt PH domain [1] = molecular target: T1, Akt PH domain (Homo sapiens (Human), UniProt P31749); assay: Fluorescence polarization (FP) PIP3/Akt PH domain binding assay; conditions: for IC50: 15 nM TMR-conjugated PIP3, PITs 6.25-200 μM, 30 min; for activity of PIT-1 analogs in vitro: negative controls
Description: (§1) In order to identify compounds that disrupt the interaction between PIP3 and PH domains, a high-throughput fluorescence polarization (FP)-binding assay was developed using recombinant 1-123 amino acid N-terminal fragment of human Akt1 (also referred to herein simply as Akt), encompassing the PH domain (PH123 protein), and fluorescent […] PIP3 molecule. The amino acid sequence of human Akt1 is publicly available as, for example, GenBank Accession No. NP_001014432.1 (SEQ ID NO:1), and the corresponding DNA sequence is publicly available as, for example, GenBank Accession No. NM_001014432. Briefly, 5 μM recombinant GST fusion proteins containing 1-123 a.a. N-terminal fragment of human Akt1 (PH 123) or 100 nM 441-551 a.a. region of human PDK1 were incubated with 15 nM TMR-labeled PIP3, PIP2, or PIP5 in buffer containing 50 mM Tris-HCl (pH 7.5), 150 mM NaCl, and 5 mM b-ME for 15 min at room temperature in the dark. FP values were determined using Wallac Victor 3 plate reader. For the primary screen, 50,000 diverse small molecules from Harvard Institute of Chemistry and Cell Biology were screened (iccb.med.harvard.edu). Incubations were carried out for 1 hr. For secondary assays, PIT compounds were added at various concentrations (6.25, 12.5, 25, 50, 100, 150 and 200 μM), followed by a 30 min incubation. The inhibition rates were calculated as inhibition rate=[1−(compound-treated group/control group)]×100%, and IC50 value was determined using Origin6 software (MicroCal, LLC, Northampton, Mass.).
Target sequence in this assay (P31749 1-123): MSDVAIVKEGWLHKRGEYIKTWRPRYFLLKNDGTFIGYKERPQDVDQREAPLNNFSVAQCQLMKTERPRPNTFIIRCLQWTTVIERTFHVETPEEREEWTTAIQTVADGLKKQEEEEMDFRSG

PDK1 PH domain = PDK1 PH domain (Homo sapiens (Human), UniProt O15530); assay: FP PIP3/PDK1 PH domain binding assay; conditions: for IC50: 15 nM TMR-conjugated PIP3, 100 nM PDK1 PH domain, 30 min
Description: as §1

Akt PH domain [2] = molecular target: T1, Akt PH domain; assay: PH domain translocation assay (GFP fusion, plasma membrane); type: cell-based; conditions: PDGF stimulation
Method: Cells were transfected with the corresponding GFP-fusion vectors, serum starved overnight, and incubated with 100 μM PITs or PIT-1 is for 2 hr, followed by stimulation with 100 ng/ml PDGF or 250 ng/ml PMA for 5 min. The translocation was analyzed using fluorescent microscope and was quantitated by counting the number of cells with translocated PH domains in five random fields.
To begin characterizing cellular activity of PITs, a PH domain translocation assay was performed, measuring PIP3-induced association of GFP-fused PH domains with the plasma membrane. […] Varnai P et al. (1999) J Biol Chem 274:10983-9. Several PH-domain-containing proteins, which are known to bind PIP3 specifically and efficiently, were examined. […] Oikawa T et al. (2004) Nat Cell Biol 6:420-6.
Target sequence in this assay (P31749 5-108): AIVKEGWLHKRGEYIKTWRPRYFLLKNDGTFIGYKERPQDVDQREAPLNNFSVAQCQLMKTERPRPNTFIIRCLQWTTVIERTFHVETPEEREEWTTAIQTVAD

[3] = test system: multiple cancer cell lines; assay: Cancer cell viability, MTS or ATP assays; type: cell-based; conditions: dose- and time-dependent
Method: Based on the critical role of PIP3-dependent […] signaling in the regulation of cell survival, the effect of PIT-1 on the cancer cell viability was tested. Cancer cells were seeded into 96-well plates (white plates for ATP assay; black plates for fluorescent assay; clear plates for MTS assay) at the density of 5-10×10^3 cells per well in 100 μl of the appropriate media. Compounds were added at a series of concentrations and incubated for different times. For the ATP assay, a luminescence-based commercial kit (CellTiter-Glo, Promega, Madison, Wis.) was used. Thirty microliters of cell lysis/ATP detection reagent was added to each well, mixed for 10 min at room temperature, and the luminescence was measured using a Wallac Victor 3 plate reader (Perkin-Elmer, Wellesley, Mass.). For the MTS assay, a CellTiter 96 AQueous Non-Radioactive Cell Proliferation Assay Kit (Promega, Madison, Wis., USA) was used. Twenty microliters of the combined MTS/PMS solution was added into each well, incubated for 4 hr at 37° C., and the absorbance at 490 nm was measured using a Wallac Victor 3 plate reader. For the Sytox cell death assay, measuring loss of plasma membrane integrity, cells were incubated with 1 μM Sytox Green reagent (Molecular Probes, Eugene, Oreg.) for 30 min at 37° C. and the fluorescence intensity was measured using Wallac Victor 3 plate reader with excitation at 485 nm and emission at 545 nm. Next, 5 μl of 20% (v/v) Triton X-100 solution was added to each well and incubated for 1 hr at 37° C., and the signal was measured again. The ratio of values (percentage of dead cells in each well) before and after Triton X-100 treatment was calculated and normalized to the relevant controls not subjected to the cytotoxic stimuli. IC50 values were determined using Origin6 software (MicroCal, LLC, Northampton, Mass.).

[4] = test system: SUM159 cells transfected with VAV2 or WAVE2; assay: Lamellipodia formation and membrane translocation in VAV/WAVE-transfected cells; type: cell-based, human; conditions: 100 μM, 2 hr
Description: Of the PIP3-binding actin-regulating factors, VAV and WAVE family proteins have been identified as important PIP3-interacting proteins regulating actin polymerization, lamellipodia formation, and cell motility in response to growth factor stimulation. Hornstein I et al. (2004) Cell Signal 16:1-11; Oikawa T et al. (2004) Nat Cell Biol 6:420-6. Therefore, the effect of PIT-1 on the cellular localization of GFP fusions of VAV and WAVE proteins was investigated. SUM159 cells transfected with VAV2 or WAVE2 GFP vectors were treated with PIT-1, PIT-2, PIT-1i-1, or PIT-1i-2 (100 μM) for 2 hr. Alternatively, cells were serum starved overnight, treated with these same compounds and then stimulated with PDGF 100 ng/ml for 15 min. Subsequently, actin fibers were stained with TRITC-phalloidin and analyzed using fluorescent microscopy. The numbers of cell ruffles/lamellipodia were counted in five random fields.

[5] = test system: AMPK and ACC phosphorylation, LC3-II; assay: Metabolic stress and autophagy markers; type: cell-based, human
Description: Changes in cell metabolism have emerged in recent years as an important component of PI3K/PIP3/Akt signaling, contributing to the regulation of cell viability and transformation by the PI3K/Akt pathway. Datta S R et al. (1999) Genes Dev 13:2905-27; Elstrom R L et al. (2004) Cancer Res 64:3892-9. Therefore, the possibility that PIT-1 may cause dysregulation of energy homeostasis and induction of the metabolic stress in cancer cells, which may contribute to the PIT-induced cell death, was investigated. […] Hardie D G (2007) Nat Rev Mol Cell Biol 8:774-85. […] Mathew R et al. (2007) Nat Rev Cancer 7:961-7. […] It is also consistent with the established role of Akt as an inhibitor of autophagy. […] Takeuchi H et al. (2005) Cancer Res 65:3336-46.

PDK1 PH domain, sequence (O15530 441-551): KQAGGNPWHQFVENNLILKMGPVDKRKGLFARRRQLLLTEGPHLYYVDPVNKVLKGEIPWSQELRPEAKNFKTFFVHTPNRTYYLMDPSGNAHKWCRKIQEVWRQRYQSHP

## O=C(NC(=O)c1ccccc1)Nc1cc([N+](=O)[O-])cc(Cl)c1O [PIT-1i-1, reference compound]
Akt PH domain [1]
  IC50: > 200 µM
  activity of PIT-1 analogs in vitro: inactive analogs
PDK1 PH domain
  IC50: > 200 µM
Akt PH domain [2]
  plasma membrane translocation of Akt PH domain: inactive
[3]
  viability of multiple cancer cell lines: did not induce loss of viability
[4]
  lamellipodia formation and membrane translocation of VAV/WAVE proteins: inactive

## O=C(NC(=S)Nc1cc([N+](=O)[O-])cc(Cl)c1O)c1ccccc1 [PIT-1]
Akt PH domain [1]
  IC50: 31 ± 2.5 µM
PDK1 PH domain
  IC50: 66.7 ± 3.5 µM
PDK1 PH domain; FIG. 4
  inhibition of binding of PIP3 to the PH domain of PDK1: inhibited binding of PIP3 to the PH domain of PDK1
Akt PH domain [2]
  plasma membrane translocation of Akt PH domain: significantly inhibited the translocation
[3]
  viability of multiple cancer cell lines: reduced viability of multiple cancer cell lines
[5]
  phosphorylation of ACC: Increased phosphorylation
  phosphorylation of AMPK: significant increase in the phosphorylation
[5]; U87MG cells
  expression of autophagic marker LC3-II: prominently increased the expression

## COc1c(Cl)cc([N+](=O)[O-])cc1NC(=S)NC(=O)c1ccccc1 [PIT-1i-2]
Akt PH domain [1]
  IC50: > 200 µM
  activity of PIT-1 analogs in vitro: inactive analogs
PDK1 PH domain
  IC50: > 200 µM
Akt PH domain [2]
  plasma membrane translocation of Akt PH domain: inactive
[3]
  viability of multiple cancer cell lines: did not induce loss of viability
[4]
  lamellipodia formation and membrane translocation of VAV/WAVE proteins: inactive

— patent publication US8628961B2, “Small molecule antagonists of phosphatidylinositol-3,4,5-triphosphate (PIP3) and uses thereof” (Tufts University, priority 2010, dated 2014)
